Measurements as given in PubChem BioAssay AID330 (DTP/NCI, 2004).
Several values for one entry are separate records, joined by “and”; a condition that tells them apart may be missing. Equal entries are not always repeated. Toxic doses and inconclusive results are not listed.

Test system: P388 leukemia ip, CD2F1 mice, survival T/C
Experiment: NCI In Vivo Anticancer Drug Screen. Data for tumor model P388 Leukemia (intraperitoneal) in CD2F1 (CDF1) mice
Conditions: endpoint: median survival time, higher = longer survival
In short: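 Mice carrying the transplanted tumor received test compound or vehicle. Survival was recorded in each group, and the value is the treated-group measurement divided by that of the vehicle-treated control group.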

[1] = dose: 15.0 mg/kg/injection, schedule: Q01DX005 (ip), vehicle: saline with Tween-80
[2] = dose: 60.0 mg/kg/injection, schedule: Q01DX005 (ip), vehicle: saline with Tween-80
[3] = dose: 120.0 mg/kg/injection, schedule: Q01DX005 (ip), vehicle: saline with Tween-80
[4] = dose: 100.0 mg/kg/injection, schedule: Q04DX002 (ip), vehicle: Klucel (hydroxypropylcellulose) (HPC)
[5] = dose: 200.0 mg/kg/injection, schedule: Q04DX002 (ip), vehicle: Klucel (hydroxypropylcellulose) (HPC)
[6] = dose: 50.0 mg/kg/injection, schedule: Q01DX009 (ip), vehicle: Klucel (hydroxypropylcellulose) (HPC)
[7] = dose: 100.0 mg/kg/injection, schedule: Q01DX009 (ip), vehicle: Klucel (hydroxypropylcellulose) (HPC)
[8] = dose: 100.0 mg/kg/injection, schedule: Q04DX002 (ip), vehicle: saline with Tween-80
[9] = dose: 200.0 mg/kg/injection, schedule: Q04DX002 (ip), vehicle: saline with Tween-80
[10] = dose: 50.0 mg/kg/injection, schedule: Q01DX005 (ip), vehicle: saline with Tween-80
[11] = dose: 100.0 mg/kg/injection, schedule: Q01DX005 (ip), vehicle: saline with Tween-80
[12] = dose: 200.0 mg/kg/injection, schedule: Q01DX005 (ip), vehicle: saline with Tween-80

## c1ccc2c(c1)CCC1=C2S/C(=C2/SC3=C(S2)c2ccccc2CC3)S1
dose: 7.5 mg/kg/injection, schedule: Q01DX005 (ip), vehicle: saline with Tween-80
  T/C: 94 % of control
[1]
  T/C: 100 % of control
dose: 30.0 mg/kg/injection, schedule: Q01DX005 (ip), vehicle: saline with Tween-80
  T/C: 100 % of control

## C[C@@H]1C[C@@]2(C)[C@@H](CC[C@@H]3[C@@H]2CC[C@]2(C)[C@@H](O)CC[C@@H]32)CC1=O
dose: 100.0 mg/kg/injection, schedule: Q04DX003 (ip), vehicle: Klucel (hydroxypropylcellulose) (HPC)
  T/C: 100 % of control
dose: 200.0 mg/kg/injection, schedule: Q04DX003 (ip), vehicle: Klucel (hydroxypropylcellulose) (HPC)
  T/C: 100 % of control

## CCCCCCCCCCn1cc[nH]c1=S
dose: 25.0 mg/kg/injection, schedule: Q01DX005 (ip), vehicle: Klucel (hydroxypropylcellulose) (HPC)
  T/C: 103 % of control
dose: 50.0 mg/kg/injection, schedule: Q01DX005 (ip), vehicle: Klucel (hydroxypropylcellulose) (HPC)
  T/C: 107 % of control and 115 % of control
dose: 100.0 mg/kg/injection, schedule: Q01DX005 (ip), vehicle: Klucel (hydroxypropylcellulose) (HPC)
  T/C: 105 % of control and 112 % of control
dose: 200.0 mg/kg/injection, schedule: Q01DX005 (ip), vehicle: Klucel (hydroxypropylcellulose) (HPC)
  T/C: 117 % of control

## CN(C)c1ccc(/C=C/c2ccncc2)cc1
dose: 1.56 mg/kg/injection, schedule: Q01DX009 (ip), vehicle: saline with Tween-80
  T/C: 104 % of control and 106 % of control
dose: 3.13 mg/kg/injection, schedule: Q01DX009 (ip), vehicle: saline with Tween-80
  T/C: 104 % of control and 113 % of control
dose: 6.25 mg/kg/injection, schedule: Q01DX009 (ip), vehicle: saline with Tween-80
  T/C: 102 % of control and 94 % of control

## C[N+]12CCCCC1CC2 (stereo not given)
dose: 6.25 mg/kg/injection, schedule: Q01DX009 (ip), vehicle: saline
  T/C: 89 % of control
dose: 12.5 mg/kg/injection, schedule: Q01DX009 (ip), vehicle: saline
  T/C: 88 % of control
dose: 25.0 mg/kg/injection, schedule: Q01DX009 (ip), vehicle: saline
  T/C: 91 % of control

## Cc1cc(Cl)ccc1NC(=O)Oc1ccc(C#N)cc1
[2]
  T/C: 90 % of control
[3]
  T/C: 90 % of control
dose: 240.0 mg/kg/injection, schedule: Q01DX005 (ip), vehicle: saline with Tween-80
  T/C: 90 % of control

## CC(N)=NC(C)C
dose: 50.0 mg/kg/injection, schedule: Q01DX009 (ip), vehicle: saline
  T/C: 101 % of control
dose: 100.0 mg/kg/injection, schedule: Q01DX009 (ip), vehicle: saline
  T/C: 101 % of control
dose: 200.0 mg/kg/injection, schedule: Q01DX009 (ip), vehicle: saline
  T/C: 99 % of control

## OC1(c2ccccc2)CCN(c2c3ccccc3nc3ccccc23)CC1
[4]
  T/C: 118 % of control
[5]
  T/C: 119 % of control

## COc1ccc(C2CC(=O)C=C3c4ccc(OC)cc4CCC32)cc1 (stereo not given)
[6]
  T/C: 91 % of control
[7]
  T/C: 91 % of control

## COC(=O)C(C)NP(=O)(N1CC1)N1CC1 (stereo not given)
dose: 1.87 mg/kg/injection, schedule: Q01DX005 (ip), vehicle: saline
  T/C: 119 % of control
dose: 7.5 mg/kg/injection, schedule: Q01DX005 (ip), vehicle: saline
  T/C: 176 % of control
[1]
  T/C: 257 % of control
dose: 15.0 mg/kg/injection, schedule: Q01DX005 (ip), vehicle: saline
  T/C: 226 % of control

## CC1=C/C(=N\SC(c2ccccc2)(c2ccccc2)c2ccccc2)CCC1
[8]
  T/C: 94 % of control
[9]
  T/C: 95 % of control

## CCOC(=O)c1ccc2c(c1)Nc1cc3ccccc3cc1N2
dose: 25.0 mg/kg/injection, schedule: Q01DX009 (ip), vehicle: saline + alcohol
  T/C: 104 % of control
dose: 50.0 mg/kg/injection, schedule: Q01DX009 (ip), vehicle: saline + alcohol
  T/C: 88 % of control
dose: 100.0 mg/kg/injection, schedule: Q01DX009 (ip), vehicle: saline + alcohol
  T/C: 101 % of control

## O=C1CN(CCO)CC(=O)N2Cc3ccccc3CN12
[10]
  T/C: 101 % of control
[11]
  T/C: 111 % of control
[12]
  T/C: 103 % of control

## FC(F)(F)c1ccc(NC(=S)SCc2ccc(Cl)cc2)cc1
dose: 50.0 mg/kg/injection, schedule: Q01DX009 (ip), vehicle: suspension in saline
  T/C: 90 % of control
dose: 100.0 mg/kg/injection, schedule: Q01DX009 (ip), vehicle: suspension in saline
  T/C: 100 % of control
dose: 200.0 mg/kg/injection, schedule: Q01DX009 (ip), vehicle: suspension in saline
  T/C: 108 % of control

## CC/C(=C/C(F)(F)C(F)(F)C(F)(F)F)[N+](=O)[O-]
dose: 25.0 mg/kg/injection, schedule: Q01DX009 (ip), vehicle: Klucel (hydroxypropylcellulose) (HPC)
  T/C: 96 % of control
[6]
  T/C: 104 % of control
[7]
  T/C: 102 % of control

## O=C1CN(CCN2CC(=O)N(CN3CCOCC3)C(=O)C2)CC(=O)N1CN1CCOCC1
dose: 12.5 mg/kg/injection, schedule: Q01DX005 (ip), vehicle: water
  T/C: 108 % of control and 111 % of control and 119 % of control

## CCCCOc1cccc2c(NCCNc3c4ccccc4nc4c(OCCCC)cccc34)c3ccccc3nc12
dose: 0.62 mg/kg/injection, schedule: Q01DX009 (ip), vehicle: other
  T/C: 105 % of control
dose: 1.25 mg/kg/injection, schedule: Q01DX009 (ip), vehicle: other
  T/C: 109 % of control
dose: 2.5 mg/kg/injection, schedule: Q01DX009 (ip), vehicle: other
  T/C: 101 % of control
dose: 5.0 mg/kg/injection, schedule: Q01DX009 (ip), vehicle: other
  T/C: 100 % of control
dose: 10.0 mg/kg/injection, schedule: Q01DX009 (ip), vehicle: other
  T/C: 100 % of control

## c1nnc2c3c4c(sc3ncn12)CCCC4
[10]
  T/C: 97 % of control
[11]
  T/C: 91 % of control

## COC1=CC(=O)C2CC=CC3CC(=O)OC1C32C (stereo not given)
[4]
  T/C: 100 % of control
[5]
  T/C: 94 % of control
dose: 400.0 mg/kg/injection, schedule: Q04DX002 (ip), vehicle: Klucel (hydroxypropylcellulose) (HPC)
  T/C: 100 % of control

## CN(C)CC1=Nc2cccc3cccc(c23)N1
[2]
  T/C: 102 % of control
[3]
  T/C: 106 % of control

## Cn1c2ccccc2c2nnc(N/N=C/c3ccc([N+](=O)[O-])o3)nc21
dose: 100.0 mg/kg/injection, schedule: Q01DX001 (ip), vehicle: saline with Tween-80
  T/C: 90 % of control
dose: 200.0 mg/kg/injection, schedule: Q01DX001 (ip), vehicle: saline with Tween-80
  T/C: 91 % of control
dose: 400.0 mg/kg/injection, schedule: Q01DX001 (ip), vehicle: saline with Tween-80
  T/C: 96 % of control

## Nc1ccc(/C=C/c2ccc3ncccc3c2)cc1
dose: 12.5 mg/kg/injection, schedule: Q01DX009 (ip), vehicle: saline with Tween-80
  T/C: 100 % of control
dose: 25.0 mg/kg/injection, schedule: Q01DX009 (ip), vehicle: saline with Tween-80
  T/C: 109 % of control
dose: 50.0 mg/kg/injection, schedule: Q01DX009 (ip), vehicle: saline with Tween-80
  T/C: 97 % of control

## COC1(c2ccccc2)C(c2ccccc2)=CC(c2ccccc2)=[N+]1[O-] (stereo not given)
dose: 50.0 mg/kg/injection, schedule: Q04DX003 (ip), vehicle: saline
  T/C: 95 % of control
dose: 100.0 mg/kg/injection, schedule: Q04DX003 (ip), vehicle: saline
  T/C: 109 % of control
dose: 200.0 mg/kg/injection, schedule: Q04DX003 (ip), vehicle: saline
  T/C: 95 % of control

## CSCCCNC(=O)c1csc(-c2csc(CCNC(C)=O)n2)n1
[8]
  T/C: 98 % of control
[9]
  T/C: 95 % of control
dose: 400.0 mg/kg/injection, schedule: Q04DX002 (ip), vehicle: saline with Tween-80
  T/C: 97 % of control

## CC(=O)N(Cc1ccccc1)c1nccs1
[10]
  T/C: 104 % of control
[11]
  T/C: 99 % of control
[12]
  T/C: 90 % of control

## CCOC(=O)c1cnc2cc(C)cc(C)c2c1Nc1ccc2c(c1)OCO2
dose: 60.0 mg/kg/injection, schedule: Q01DX005 (ip), vehicle: Klucel + Tween-80
  T/C: 100 % of control
dose: 120.0 mg/kg/injection, schedule: Q01DX005 (ip), vehicle: Klucel + Tween-80
  T/C: 92 % of control
dose: 240.0 mg/kg/injection, schedule: Q01DX005 (ip), vehicle: Klucel + Tween-80
  T/C: 87 % of control

## Cc1cccnc1NC(=S)Nc1ccccc1Cl
dose: 12.5 mg/kg/injection, schedule: Q01DX009 (ip), vehicle: gum acacia
  T/C: 104 % of control
dose: 25.0 mg/kg/injection, schedule: Q01DX009 (ip), vehicle: gum acacia
  T/C: 96 % of control
dose: 50.0 mg/kg/injection, schedule: Q01DX009 (ip), vehicle: gum acacia
  T/C: 104 % of control
dose: 100.0 mg/kg/injection, schedule: Q01DX009 (ip), vehicle: gum acacia
  T/C: 95 % of control

## CC[n+]1cccc2ccccc21
dose: 100.0 mg/kg/injection, schedule: Q04DX003 (ip), vehicle: saline with Tween-80
  T/C: 101 % of control
dose: 200.0 mg/kg/injection, schedule: Q04DX003 (ip), vehicle: saline with Tween-80
  T/C: 94 % of control
